Measured values from patent US11076600B2, “Mixtures of cis-jasmone and bacillus amyloliquefaciens” (BASF SE, priority 2015, dated 2021).

Columns and labels:
Format in all cases: in vivo
[1] = system: root knot nematodes (Meloidogyne incognita/acrita); assay: Field trial: yield improvement against root knot nematode in corn after seed treatment; details: corn (NG6247MQKZ, NF5334MQKZ, NG4549MQKZ) seed treatment; per 100 kg of seeds: MBI600 1*10^11 CFU, cis-jasmone 0.2 g ai; harvest yield (bushels/acre) converted into % of untreated control; 4-6 replicates
Description: (§1) To establish, whether a synergistic effect is present, the expected efficacy has to be calculated and compared to the observed efficacy of the mixture according to the invention.
(§2) Synergism can be described as an interaction where the combined effect of two or more compounds is greater than the sum of the individual effects of each of the compounds. The presence of a synergistic effect in terms of percent control, between two mixing partners (X and Y) can be calculated using the Colby equation (Colby, S. R., 1967, Calculating Synergistic and Antagonistic Responses in Herbicide Combinations, Weeds, 15, 20-22):
(§3) X=Observed efficacy (in % of Untreated Control) of compound 1
(§4) Y=Observed efficacy (in % of Untreated Control) of compound 2
(§5) E=Calculated (i.e. expected) efficacy (in % of Untreated Control)
(§6) When the observed efficacy (%) is greater than the calculated efficacy (E) according to Colby (%), then the combined effect is synergistic.
For evaluating control of root knot nematodes (Meloidogyne incognita/acrita) in corn, corn seeds (varieties NG6247MQKZ, NF5334MQKZ and NG4549MQKZ, respectively) were treated with cis-jasmone, MBI600 (Bacillus amyloliquefaciens ssp. plantarum MBI600), or a mixture thereof. […]

[2] = system: root knot nematodes (Meloidogyne incognita/acrita); assay: Field trial: yield improvement against root knot nematode in cotton after seed treatment; details: cotton (PhytoGen PHY 499 WRF) seed treatment; per 100 kg of seed: MBI600 1*10^11 CFU, cis-jasmone 0.2 g ai; harvest yield (pounds/acre) converted into % of untreated control; 4 replicates
Description: as §1, §2, §3, §4, §5, §6
For evaluating control of root knot nematodes (Meloidogyne incognita/acrita) in cotton, cotton seeds (variety PhytoGen PHY 499 WRF) were treated with cis-jasmone, MBI600 (Bacillus amyloliquefaciens ssp. plantarum MBI600), or a mixture thereof.
(§7) Seeds were placed in a plastic cup and the compounds, or the mixture thereof, was dosed on the seeds with an application rate of 0.2 g of cis-jasmone per 100 kg of seeds, and 1*10^11 CFU of MBI600 per 100 kg of seeds. […]

[3] = system: soybean cyst nematodes (Heterodera glycines); assay: Field trial: yield improvement against soybean cyst nematode in soybean after seed treatment; details: soybean (Dyna-Gro 39RY43) seed treatment; per 100 kg of seed: MBI600 1*10^11 CFU, cis-jasmone 0.2 g ai; harvest yield (bushels/acre) converted into % of untreated control; 4 replicates
Description: as §1, §2, §3, §4, §5, §6
For evaluating control of soybean cyst nematodes (Heterodera glycines) in soybean, soybean seeds (variety Dyna-Gro 39RY43) were treated with cis-jasmone, MB1600 (Bacillus amyloliquefaciens ssp. plantarum MB1600), or a mixture thereof.
as §7

CC/C=C\CC1=C(C)CCC1=O [Cis-jasmone]
Observed efficacy (%) [1]: 9.2%
Observed efficacy (%) [2]: 47.2%
Observed efficacy (%) [3]: 9%
